Experimental data published in PubChem BioAssay (NCI).
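At the GI50, growth is halved. The concentration for full growth arrest is given as TGI.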

What was measured:
Assay in all cases: NCI tumour cell line growth inhibition, 384-well format
SN12C renal = system: SN12C renal
SNB-19 CNS = system: SNB-19 CNS
OVCAR-4 ovarian = system: OVCAR-4 ovarian
KM12 colon = system: KM12 colon
OVCAR-5 ovarian = system: OVCAR-5 ovarian
786-0 renal = system: 786-0 renal
HCT-116 colon = system: HCT-116 colon
NCI-H322M lung = system: NCI-H322M lung
OVCAR-3 ovarian = system: OVCAR-3 ovarian
SF-539 CNS = system: SF-539 CNS
EKVX NSCLC = system: EKVX NSCLC
HS 578T breast = system: HS 578T breast
RXF 393 renal = system: RXF 393 renal
NCI-H522 lung = system: NCI-H522 lung
LOX IMVI melanoma = system: LOX IMVI melanoma
M14 melanoma = system: M14 melanoma
NCI-H460 NSCLC = system: NCI-H460 NSCLC
UACC-257 melanoma = system: UACC-257 melanoma
UACC-62 melanoma = system: UACC-62 melanoma
T-47D breast = system: T-47D breast
SK-MEL-5 melanoma = system: SK-MEL-5 melanoma
ACHN renal = system: ACHN renal
SK-MEL-2 melanoma = system: SK-MEL-2 melanoma
CAKI-1 renal = system: CAKI-1 renal
MOLT-4 leukemia = system: MOLT-4 leukemia
COLO 205 colon = system: COLO 205 colon
A549 NSCLC = system: A549 NSCLC
IGROV1 ovarian = system: IGROV1 ovarian
SF-268 CNS = system: SF-268 CNS
MDA-MB-468 breast = system: MDA-MB-468 breast
NCI-H23 lung = system: NCI-H23 lung
TK-10 renal = system: TK-10 renal
SF-295 CNS = system: SF-295 CNS
HCT-15 colon = system: HCT-15 colon
SNB-75 CNS = system: SNB-75 CNS
NCI-H226 lung = system: NCI-H226 lung
SK-OV-3 ovarian = system: SK-OV-3 ovarian
MCF7 breast = system: MCF7 breast
DU-145 prostate = system: DU-145 prostate
U251 glioblastoma = system: U251 glioblastoma
MDA-MB-231 breast = system: MDA-MB-231 breast
MDA-MB-435 melanoma = system: MDA-MB-435 melanoma
HOP-62 NSCLC = system: HOP-62 NSCLC
MALME-3M melanoma = system: MALME-3M melanoma
RPMI-8226 leukemia = system: RPMI-8226 leukemia
HL-60(TB) leukemia = system: HL-60(TB) leukemia
HCC-2998 colon = system: HCC-2998 colon
SK-MEL-28 melanoma = system: SK-MEL-28 melanoma
NCI/ADR-RES ovarian = system: NCI/ADR-RES ovarian
HT29 colon = system: HT29 colon
SR leukemia = system: SR leukemia
A498 renal = system: A498 renal
CCRF-CEM leukemia = system: CCRF-CEM leukemia
PC-3 prostate = system: PC-3 prostate
K-562 leukemia = system: K-562 leukemia
HOP-92 NSCLC = system: HOP-92 NSCLC
BT-549 breast = system: BT-549 breast
SW-620 colon = system: SW-620 colon
UO-31 renal = system: UO-31 renal

In the case of `Cc1cc(Nc2cc(N3CCN(C)CC3)nc(C#Cc3ccccc3)n2)n[nH]1`, the GI50 (SN12C renal) is reported as 2.73 µM, the TGI (SN12C renal) is reported as 12.7 µM and the GI50 (SNB-19 CNS) is reported as 6.17 µM. For the same molecule, the TGI (SNB-19 CNS) was 19.3 µM, the GI50 (OVCAR-4 ovarian) was 5.97 µM and the TGI (OVCAR-4 ovarian) was 20 µM. The GI50 (KM12 colon) was 0.334 µM, the TGI (KM12 colon) was 10.4 µM and the GI50 (OVCAR-5 ovarian) was 3.53 µM. It also gave a TGI (OVCAR-5 ovarian) of 15.2 µM, a GI50 ([…]-0 renal) of 3.75 µM and a TGI (786-0 renal) of 15 µM. It also gave a GI50 (HCT-116 colon) of 2.94 µM, a TGI (HCT-116 colon) of 11.9 µM and a GI50 (NCI-H322M lung) of 5.44 µM. It also gave a TGI (NCI-H322M lung) of 19.6 µM, a GI50 (OVCAR-3 ovarian) of 2.12 µM and a TGI (OVCAR-3 ovarian) of 13.4 µM. It also gave a GI50 (SF-539 CNS) of 3.62 µM, a TGI (SF-539 CNS) of 15.9 µM and a GI50 (EKVX NSCLC) of 2.79 µM. For the same molecule, the TGI (EKVX NSCLC) was 12.7 µM, the GI50 (HS 578T breast) was 2.24 µM and the TGI (HS 578T breast) was 9.92 µM. The GI50 (RXF 393 renal) was 1.07 µM, the TGI (RXF 393 renal) was 4.32 µM and the GI50 (NCI-H522 lung) was 1.71 µM. It also gave a TGI (NCI-H522 lung) of 8.3 µM, a GI50 (LOX IMVI melanoma) of 4.02 µM and a TGI (LOX IMVI melanoma) of 13 µM. It also gave a GI50 (M14 melanoma) of 3.13 µM, a TGI (M14 melanoma) of 16.5 µM and a GI50 (NCI-H460 NSCLC) of 2.42 µM. For the same molecule, the TGI (NCI-H460 NSCLC) was 12.1 µM, the GI50 (UACC-257 melanoma) was 3.77 µM and the TGI (UACC-257 melanoma) was 14.3 µM. The GI50 (UACC-62 melanoma) was 3.1 µM, the TGI (UACC-62 melanoma) was 14.8 µM and the GI50 (T-47D breast) was 9.61 µM. For the same molecule, the TGI (T-47D breast) was 21.4 µM, the GI50 (SK-MEL-5 melanoma) was 2.49 µM and the TGI (SK-MEL-5 melanoma) was 12.9 µM. For the same molecule, the GI50 (ACHN renal) was 1.23 µM, the TGI (ACHN renal) was 7.68 µM and the GI50 (SK-MEL-2 melanoma) was 4.14 µM. It also gave a TGI (SK-MEL-2 melanoma) of 6.87 µM, a GI50 (CAKI-1 renal) of 1.6 µM and a TGI (CAKI-1 renal) of 7.03 µM. For the same molecule, the GI50 (MOLT-4 leukemia) was 1.26 µM, the TGI (MOLT-4 leukemia) was 2.58 µM and the GI50 (COLO 205 colon) was 3.73 µM. The TGI (COLO 205 colon) was 14.5 µM, the GI50 (A549 NSCLC) was 3.44 µM and the TGI (A549 NSCLC) was 12.2 µM. It also gave a GI50 (IGROV1 ovarian) of 0.607 µM, a TGI (IGROV1 ovarian) of 3.28 µM and a GI50 (SF-268 CNS) of 4.58 µM. It also gave a TGI (SF-268 CNS) of 16.9 µM, a GI50 (MDA-MB-468 breast) of 1.51 µM and a TGI (MDA-MB-468 breast) of 3.55 µM. It also gave a GI50 (NCI-H23 lung) of 2.3 µM, a TGI (NCI-H23 lung) of 10.9 µM and a GI50 (TK-10 renal) of 2.48 µM. For the same molecule, the TGI (TK-10 renal) was 15.2 µM, the GI50 (SF-295 CNS) was 2.95 µM and the TGI (SF-295 CNS) was 13 µM. For the same molecule, the GI50 (HCT-15 colon) was 2.22 µM, the TGI (HCT-15 colon) was 11.4 µM and the GI50 (SNB-75 CNS) was 1.73 µM. For the same molecule, the TGI (SNB-75 CNS) was 4.35 µM, the GI50 (NCI-H226 lung) was 4.3 µM and the TGI (NCI-H226 lung) was 16.9 µM. For the same molecule, the GI50 (SK-OV-3 ovarian) was 1.04 µM, the TGI (SK-OV-3 ovarian) was 4.36 µM and the GI50 (MCF7 breast) was 3.07 µM. For the same molecule, the TGI (MCF7 breast) was 15.1 µM, the GI50 (DU-145 prostate) was 4.04 µM and the TGI (DU-145 prostate) was 17.4 µM. For the same molecule, the GI50 (U251 glioblastoma) was 5.41 µM, the TGI (U251 glioblastoma) was 18.6 µM and the GI50 (MDA-MB-231 breast) was 3.54 µM. The TGI (MDA-MB-231 breast) was 15.9 µM, the GI50 (MDA-MB-435 melanoma) was 3.18 µM and the TGI (MDA-MB-435 melanoma) was 12.6 µM. The GI50 (HOP-62 NSCLC) was 3.28 µM, the TGI (HOP-62 NSCLC) was 13.5 µM and the GI50 (MALME-3M melanoma) was 2.57 µM. The TGI (MALME-3M melanoma) was 11.8 µM, the GI50 (RPMI-8226 leukemia) was 3.24 µM and the TGI (RPMI-8226 leukemia) was 13.4 µM. It also gave a GI50 (HL-60(TB) leukemia) of 2.12 µM, a TGI (HL-60(TB) leukemia) of 5.14 µM and a GI50 (HCC-2998 colon) of 0.348 µM. It also gave a TGI (HCC-2998 colon) of 6.72 µM, a GI50 (SK-MEL-28 melanoma) of 5.59 µM and a TGI (SK-MEL-28 melanoma) of 18.8 µM. The GI50 (NCI/ADR-RES ovarian) was 9.92 µM, the TGI (NCI/ADR-RES ovarian) was 22 µM and the GI50 (HT29 colon) was 3.95 µM. It also gave a TGI (HT29 colon) of 14.8 µM, a GI50 (SR leukemia) of 1.36 µM and a TGI (SR leukemia) of 2.75 µM. The GI50 (A498 renal) was 1.66 µM, the TGI (A498 renal) was 11 µM and the GI50 (CCRF-CEM leukemia) was 2.19 µM. For the same molecule, the TGI (CCRF-CEM leukemia) was 7.01 µM, the GI50 (PC-3 prostate) was 3.09 µM and the TGI (PC-3 prostate) was 13.9 µM. It also gave a GI50 (K-562 leukemia) of 2.63 µM, a TGI (K-562 leukemia) of 12.3 µM and a GI50 (HOP-92 NSCLC) of 2.23 µM. It also gave a TGI (HOP-92 NSCLC) of 8.85 µM, a GI50 (BT-549 breast) of 2.58 µM and a TGI (BT-549 breast) of 7.09 µM. The GI50 (SW-620 colon) was 3.42 µM, the TGI (SW-620 colon) was 12.5 µM and the GI50 (UO-31 renal) was 2.2 µM. It also gave a TGI (UO-31 renal) of 8.13 µM.
